In patent US6518012B1, “Method for regulating the expression of MHC antigens and CD40 by inhibitors of histone deacetylation” (Health Research, Inc., priority 1999, dated 2003):

Legend:
cell lines employed = test: Toxicity of deacetylase inhibitors (lift-off, trypan-blue dye exclusion, laddering, PI/annexin-V flow cytometry); type: cell-based; conditions: TSA from 5 nM to 250 nM for 6 to 72 hr
Experimental: Two representative DAIs, TSA and NaBu were used for this illustration. […] In some experiments, 100 U/ml γ-IFN was added with and without the deacetylase inhibitor.

[1] = test system: DP and DQ isotypes of MHC class II mRNA; test: mRNA for DP and DQ isotypes of MHC class II in SK-N-MC; type: cell-based, human; conditions: data not shown
MHC class I = test: Cell surface MHC class I by flow cytometry on SK-N-MC; type: cell-based, human; conditions: 50 nM TSA 48 hours
CD40 = test: Cell surface CD40 by flow cytometry on SK-N-MC; type: cell-based, human; conditions: 50 nM TSA 48 hours
[2] = test system: MC, Colon 26 and J558 cells; test: Apoptosis by flow cytometry (sub-G0 PI staining, annexin-V); type: cell-based; conditions: low concentrations of TSA employed in FIG. 8
Experimental: To determine the effect of TSA on cell surface protein expression, the J558 cell line was subjected to flow cytometric analyses as follows. Flow cytometric analyses were conducted by standard methods using cells fixed with 1.0% paraformaldehyde and analyzed on the FACScan (Becton Dickinson). Cell cycle analyses were carried out by flow cytometry with PI staining of genomic DNA. Cells were fixed and permeablized in methanol, treated with RNaseA and analyzed for DNA content by determination of FL3-area on the FACScan. The FL3-area data were analyzed with the ModFit software for determination of the percent cells in each phase of the cell cycle. In some cases, fluorescein isothiocyanate (FITC)-conjugated antibody staining was conducted prior to PI treatment and surface staining was analyzed as a function of cell cycle phase. Apoptosis was analyzed by staining with annexin-V directly conjugated with either FITC or RPE and by sub-G0 analysis of DNA staining. […] Isotype controls were analyzed and, in each case, fell on or below the levels shown for control cells. […] Since all cells were positive for MHC class I expression, the number under the histogram represents -fold change of expression calculated from the mean channel-shift after treatment relative to untreated cells. […]

[3] = test system: interferon regulatory factor (IRF-1) and guanylate binding protein (GBP) mRNA; test: mRNA of IFNγ inducible genes IRF-1 and GBP in SK-N-MC; type: cell-based, human; conditions: IFNγ treatment, data not shown
[4] = test system: IRF-1, GBP and MHC class I mRNA; test: mRNA of IRF-1, GBP and MHC class I in J558; type: cell-based, mouse; conditions: IFNγ, data not shown
Experimental: To determine if the effect of DAIs on MHC class II was manifested in other tumors and in different species, the effect of TSA was tested on four commonly used mouse tumor models: the SaI fibrosarcoma, the Colon 26 adenocarcinoma, the J558 plasmacytoma and the P815 mastocytoma. TSA induced class II in all four mouse tumors examined, while the effects of IFNγ were variable (FIG. 4). Data presented for each cell line represents optimal incubation time and concentration of TSA and is compared with 100 U/ml of IFNγ at the same time point. Numbers over bars represents fold changes. […] Colon 26 and J558 that differed strikingly in their reactivity to IFNγ were selected for further evaluation. RT-PCR and real time PCR was used to examine induction of CIITA and IAα by TSA and IFNγ. A20, a constitutively positive B cell line was used as a positive control. The results are shown in FIGS. 5A-D. The numbers over bars represent fold changes. […] Since the classical IFNγ inducible genes IRF-1 and GBP as well as MHC class I mRNA were not induced by IFNγ in J558 (data not shown), this cell line may have a signaling defect in the IFNγ pathway. Unexpectedly however, and unlike either the MC or Colon 26 cells, TSA induced both CIITA (102-fold) and Iα (537-fold) in J558 as shown in FIGS. 5B and 5D.

Row | mRNA for IRF-1 and GBP [3] | Compound | toxicity (cell lines employed) | mRNA for the DP and DQ isotypes of MHC class II [1] | MHC class I expression on cell surface (MHC class I) | expression of CD40 on cell surface (CD40) | apoptosis [2] | IRF-1, GBP and MHC class I mRNA induction [4]
1 | – | CC(/C=C/C(=O)NO)=C\[C@@H](C)C(=O)c1ccc(N(C)C)cc1 [TSA, Trichostatin A] | non toxic | induced | enhanced | induced expression | could not be detected | –
2 | enhanced | IFNγ: gamma-interferon, cytokine used as comparator at 100 U/ml | – | – | – | – | – | not induced
